Results reported in patent publication US20100297256A1, “METHODS AND COMPOSITIONS FOR INHIBITING INTEGRINS USING TELLURIUM-CONTAINING COMPOUNDS” (priority 2007, published 2010).

Key:
[1] = test system: leukemic cells from AML patients; assay: Sensitization of leukemic cells from AML patients to chemotherapy; type: cell-based, human
Method: (§1) 2×10^4 per 200 μl cells were seeded in 96-microwell flat bottom plates. After 24 hours, the tested compound(s) (e.g., AS101, ARA-C, DTNB, anti-VLA-4 antibody) was added, and the cells were incubated overnight with the tested compound(s). The XTT solution was then added and the cells were incubated for 4 hours at 37° C. Cell viability was than evaluated by measuring absorbance at 450 nm using a Microplate Spectrophotometer (Spectra MAX Plus, Molecular Devices).
Bone marrow samples from patients diagnosed, with AML, but not yet treated, were obtained and grown in vitro. The leukemic cells obtained therefrom were tested for levels of VLA-4 and VLA-5 via fluorescence based cytometry, using FITC (fluorescein isothiocyanate)-conjugated anti-VLA-4 and anti-VLA-5 antibodies, using standard procedures. The cells were grown on both fibronectin and BSA, and the effect of AS101 on chemotherapy resistance was measured.

U937 cells [2] = assay: Fluorescence-based flow cytometry analysis of cell death; design: species or system human; conditions: agent alone
Description: Fluorescence-based flow cytometry was used to measure the effect of tellurium-containing compounds on chemotherapy-induced cell death. Accumulation of cells in the sub-G1 fraction, increased proportion of annexin V-positive and propidium iodide-positive cells and increased caspase activity were each used as indicators of increased cell death, using standard procedures.

U937 cells [3] = assay: AML chemotherapy resistance assay (XTT cell viability), U937; type: cell-based, human; conditions: for resistance of cells to the agent on fibronectin-coated plates in comparison with VCAM-1- and BSA-coated plates: U937
Method: (§2) Cell viability was determined using a cell proliferation kit (Roche), which colors viable cells using the tetrazolium salt XTT.
as §1
The role of VLA protein in fibronectin-induced resistance to chemotherapy was investigated by performing a chemotherapy resistance assay, as described hereinabove, with anti-VLA-4 and anti-VLA-5 antibodies. U937 cells were grown in fibronectin- and BSA-coated plates. Antibodies were added at a concentration of 1 μg/ml.

HL-60 cells = assay: AML chemotherapy resistance assay (XTT cell viability), HL-60; type: cell-based, human; conditions: HL-60
Method: as §2, §1

Bcl2 = assay: Western blot analysis of Bcl2; type: cell-based, human; conditions: ARA-C alone
Description: The expression of the survival factor Bcl2 was examined via Western blot analysis in U937 cells treated with the chemotherapeutic agent ARA-C.

leukemic cells = assay: Chemotherapy resistance assay with DTNB, leukemic cells; type: cell-based
Method: as §1
The role of free thiols in VLA-4/fibronectin-induced resistance to chemotherapy was therefore investigated by performing a chemotherapy resistance assay, as described hereinabove, with the membrane-impermeable thiol blocker DTNB (5 mM).

Structure (SMILES): Nc1ccn([C@@H]2O[C@H](CO)[C@@H](O)[C@@H]2O)c(=O)n1 [ARA-C, cytosine arabinoside, reference compound]
- viability of cells exposed to ARA-C ([1]; 4 AML patients with low VLA-4 levels, on fibronectin and BSA): decreased effectively
- resistance of cells to ARA-C ([1]; 8 AML patients with high VLA-4 levels, on fibronectin): relatively resistant to ARA-C
- viability of cells exposed to ARA-C ([1]; Patient A, low VLA-4, on fibronectin and BSA): decreased effectively
- resistance of cells to ARA-C ([1]; Patient B, high VLA-4, on fibronectin): relatively resistant to ARA-C
- percentage of annexin V-positive and propidium iodide-positive cells (U937 cells [2]; U937 on BSA): large percentage
- percentage of cells in the sub-G1 fraction (U937 cells [2]; U937 on BSA): large percentage
- percentage of annexin V-positive and propidium iodide-positive cells (U937 cells [2]; U937 on fibronectin): slight increase
- percentage of cells in the sub-G1 fraction (U937 cells [2]; U937 on fibronectin): slight increase
- percentage of cells with high caspase-3 activity (U937 cells [2]; U937 on fibronectin): little or no effect
- resistance of cells to the agent on fibronectin-coated plates in comparison with VCAM-1- and BSA-coated plates (U937 cells [3]): more resistant
- resistance of cells to the agent on fibronectin-coated plates in comparison with VCAM-1- and BSA-coated plates (HL-60 cells): more resistant
- expression of Bcl2 (Bcl2; U937 on BSA): reduced expression of Bcl2 considerably
- expression of Bcl2 (Bcl2; U937 on fibronectin): did not decrease expression of Bcl2

Structure (SMILES): O=C(O)c1cc(SSc2ccc([N+](=O)[O-])c(C(=O)O)c2)ccc1[N+](=O)[O-] [DTNB, 5,5′-dithiobis-(2-nitrobenzoic acid)]
- effect on viability of cells exposed to ARA-C, alone or in combination ([1]; low VLA-4 leukemic cells, fibronectin-coated plates): no effect either alone or in combination
- effect on viability of cells exposed to ARA-C, alone or in combination (U937 cells [3]; U937 on BSA): no effect either alone or in combination
- sensitization to ARA-C-induced cell death (leukemic cells; 5 mM DTNB, fibronectin-coated plates): sensitizes leukemic cells grown in fibronectin-coated plates to ARA-C-induced cell death
- sensitization to ARA-C-induced cell death (leukemic cells; DTNB, BSA-coated plates): no effect

Structure (SMILES): COc1cccc2c1C(=O)c1c(O)c3c(c(O)c1C2=O)C[C@@](O)(C(C)=O)C[C@@H]3O[C@H]1C[C@H](N)[C@H](O)[C@H](C)O1 [daunorubicin, reference compound]
- resistance of cells to the agent on fibronectin-coated plates in comparison with VCAM-1- and BSA-coated plates (U937 cells [3]): more resistant
- resistance of cells to the agent on fibronectin-coated plates in comparison with VCAM-1- and BSA-coated plates (HL-60 cells): more resistant
